Results from patent EP2524912A1, “Amine derivatives” (Bionomics Limited, priority 2011, dated 2012).

Molecular target: human Kv1.3 (Homo sapiens, UniProt P22001)
Test: Kv1.3 patch-clamp electrophysiology (planar electrode, whole-cell, steady state current)
Format: cell-based
Conditions: CHO/Kv1.3 stable cell line; steady state current amplitude at end of 500 ms depolarising pulse to +40 mV; values given as ranges; read-out: IC50 (Kv1.3 ephys steady state)
Protocol: The inhibition data shown for the compounds of the list below was calculated using the steady state current amplitude at the end of the depolarising pulse in patch clamp evaluations (as described in the Pharmacology Example 2).
The human Kv1.3 construct (Kv1.3/pENTR, clone IOH61428) was purchased from Invitrogen and subcloned into pcDNA 3.2-DEST (Invitrogen). CHO-K1 cells obtained from ATCC (cat #CCL-61) were transfected with the Kv1.3/pcDNA3.2DEST construct and a stable cell line was developed through two rounds of limiting dilution under G418 selection. Positive (Kv1.3 expressing) clones were identified using electrophysiology.
CHO/Kv1.x stable cell lines were grown in a humidified atmosphere at 37 °C, 5% CO2 in T-75 flasks containing F12 Kaighn's medium supplemented with 10% fetal calf serum, 2 mM L-glutamine, 100 units/ml penicillin, 100 µg/ml streptomycin and 500 µg/ml G418 (to maintain selection). CHO/Kv1.1 and CHO/Kv1.5 cells used for patching were transferred to 33 °C for 48 hours prior to use.
Kv1.x currents were measured using a planar electrode version (Nanion Technologies GMBH) of the patch-clamp technique. Whole-cell Kv1.x current transients were evoked by 500 ms depolarising voltage pulses to +40 mV from a holding potential of -80 mV applied at 10 s intervals for Kv1.1 and Kv1.5 and at 30 s intervals for Kv1.3 to allow adequate time for recovery from inactivation. Cells were continuously bathed in a buffered saline solution containing (mM): 160 NaCl, 4.5 KCI, 2 CaCl2, 1 MgCl2, 5 glucose, 10 HEPES, pH 7.4, 290-310 mOsm.Kg^-1. The internal (pipette) solution contained (mM): 10 NaCl, 70 KF, 75 KCI, 2 MgCl2, 10 HEPES, 10 EGTA, pH 7.2, 290-310 mOsm.Kg^-1. Series resistance compensation (60-80%) was applied when the peak current amplitude exceeded 2 nA.
Compounds were initially dissolved in DMSO to 10 mM. After further dilution in DMSO, compounds were finally diluted in bath solution 1/200 (to give a final DMSO concentration of 0.5%) and applied directly to the recording chamber. Compounds were added at increasing concentrations allowing ample time for steady state block to be achieved between each concentration. Each compound was tested at 5-6 different concentrations on 2-3 cells. IC50 values can be determined by fitting the average normalised reduction of either the current integral or the steady state current amplitude at the end of the depolarising pulse obtained at each compound concentration to the Hill equation. The IC50 data reported herein is based on the steady state calculation.

human Kv1.3, sequence (P22001 whole entry): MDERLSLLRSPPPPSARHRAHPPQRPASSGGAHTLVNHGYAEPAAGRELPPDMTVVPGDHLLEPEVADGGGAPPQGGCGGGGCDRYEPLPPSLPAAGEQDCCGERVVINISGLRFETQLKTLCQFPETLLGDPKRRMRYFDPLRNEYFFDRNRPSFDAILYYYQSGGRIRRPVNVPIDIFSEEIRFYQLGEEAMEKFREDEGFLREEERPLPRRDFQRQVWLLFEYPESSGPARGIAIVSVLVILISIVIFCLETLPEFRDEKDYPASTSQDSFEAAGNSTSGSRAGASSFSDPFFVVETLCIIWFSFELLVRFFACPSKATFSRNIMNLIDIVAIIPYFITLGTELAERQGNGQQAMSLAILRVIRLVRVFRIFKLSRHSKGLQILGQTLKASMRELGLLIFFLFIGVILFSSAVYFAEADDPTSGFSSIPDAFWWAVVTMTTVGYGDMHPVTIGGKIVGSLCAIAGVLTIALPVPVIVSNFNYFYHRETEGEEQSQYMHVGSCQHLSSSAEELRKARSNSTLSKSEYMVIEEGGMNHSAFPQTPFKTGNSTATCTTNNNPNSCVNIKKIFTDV

SMILES | IC50 [nM]
Cc1cccc(OCCN(C(=O)CC(C)c2ccc(F)cc2)C(C)c2ccc3c(c2)CCC3)n1 (stereo not shown) [Example 52, N-[1-(2,3-dihydro-1H-inden-5-yl)ethyl]-3-(4-fluorophenyl)-N-[2-(6-methylpyridin-2-yloxv)ethyl]butanamide] | 200 to 1000
COCc1ccccc1C(C)N(Cc1ccccn1)C(=O)C1(S(=O)(=O)c2ccc(F)cc2)CC1 (stereo not shown) [Example 66, 1-[(4-fluorophenyl)sulfonyl]-N-{1-[2-(methoxymethyl)phenyl]ethyl}-N-(pyridin-2-ylmethyl)cyclopropanecarboxamide] | 50 to 200
CC(CC(=O)N(CCOc1ccccn1)C(C)c1ccc2c(c1)CCC2)c1ccc(F)cc1 (stereo not shown) [Example 46, N-[1-(2,3-dihydro-1H-inden-5-yl)ethyl]-3-(4-fluorophenyl)-N-[2-(pyridin-2-yloxy)ethyl]butanamide] | 50 to 200
CC(CC(=O)N(Cc1ccccn1)C(c1ccc(Cl)cc1)C1CC1)S(=O)(=O)c1ccc(F)cc1 (stereo not shown) [Example 76, N-[(4-chlorophenyl)(cyclopropyl)methyl]-3-[(4-fluorophenyl)sulfonyl]-N-(pyridin-2-ylmethyl)butanamide] | 50 to 200
CC(CC(=O)N(Cc1ccccn1)C(C)c1nncn1C)c1ccc(F)cc1 (stereo not shown) [Example 78, 3-(4-fluorophenyl)-N-[1-(4-methyl-4H-1,2,4-triazol-3-yl)ethyl]-N-(pyridin-2-ylmethyl)butanamide] | 200 to 1000
Cc1cccc(OCCN(C(=O)CCc2ccc(F)cc2)C(C)c2ccc3c(c2)CCC3)n1 (stereo not shown) [Example 53, N-[1-(2,3-dihydro-1H-inden-5-yl)ethyl]-3-(4-fluorophenyl)-N-[2-(6-methylpyridin-2-yloxy)ethyl]propanamide] | 50 to 200
CC1(C)Oc2ccc(C(C3CC3)N(Cc3ccccn3)C(=O)COc3ccc(F)cc3)cc2S1(=O)=O (stereo not shown) [Example 77, N-[cyclopropyl(2,2-dimethyl-3,3-dioxido-1,3-benzoxathiol-5-yl)methyl]-2-(4-fluorophenoxy)-N-(pyridin-2-ylmethyl)acetamide] | 50 to 200
CC(CC(=O)N(CCOc1cccc(Cl)n1)C(C)c1ccc2c(c1)CCC2)c1ccc(F)cc1 (stereo not shown) [Example 44, N-[1-(2,3-dihydro-1H-inden-5-yl)ethyl]-3-(4-fluorophenyl)-N-[2-(6-chloropyridin-2-yloxy)ethyl]butanamide] | 200 to 1000
CC(c1ccc2c(c1)CCC2)N(CCOc1cccc(Cl)n1)C(=O)CCc1ccc(F)cc1 (stereo not shown) [Example 45, N-[1-(2,3-dihydro-1H-inden-5-yl)ethyl]-3-(4-fluorophenyl)-N-[2-(6-chloropyridin-2-yloxy)ethyl]propanamide] | 200 to 1000
CC(c1ccc2c(c1)[S+]([O-])C(C)(C)O2)N(Cc1ccccn1)C(=O)CCc1cccc(C(F)(F)F)c1 (stereo not shown) [Example 63, N-[1-(2,2-dimethyl-3-oxido-1,3-benzoxathiol-5-yl)ethyl]-N-(pyridin-2-ylmethyl)-3-[3-(trifluoromethyl)phenyl]propanamide] | > 1000
CC(CCN(C(=O)CN1CCC(F)CC1)C(C)c1ccc2c(c1)CCC2)c1ccc(F)cc1 (stereo not shown) [Example 70, N-[1-(2,3-dihydro-1H-inden-5-yl)ethyl]-N-[3-(4-fluorophenyl)butyl]-2-(4-fluoropiperidin-1-yl)acetamide] | 50 to 200
CC(c1ccc2c(c1)CCC2)N(CCOc1ccccn1)C(=O)CCc1ccc(F)cc1 (stereo not shown) [Example 47, N-[1-(2,3-dihydro-1H-inden-5-yl)ethyl]-3-(4-fluorophenyl)-N-[2-(pyridin-2-yloxy)ethyl]propanamide] | 50 to 200
COCc1ccccc1C(C)N(Cc1ccccn1)C(=O)CS(=O)(=O)c1ccc(F)cc1 (stereo not shown) [Example 65, 2-[(4-fluorophenyl)sulfonyl]-N-{1-[2-(methoxymethyl)phenyl]ethyl}-N-(pyridin-2-ylmethyl)acetamide] | > 1000
CC(CCN(C(=O)CN1CCCC(F)(F)C1)C(C)c1ccc2c(c1)CCC2)c1ccc(F)cc1 (stereo not shown) [Example 69] | 50 to 200
CC(c1ccc2c(c1)SC(C)(C)O2)N(Cc1ccccn1)C(=O)CCc1ccc(F)cc1 (stereo not shown) [Example 54, N-[1-(2,2-dimethyl-1,3-benzoxathiol-5-yl)ethyl]-3-(4-fluorophenyl)-N-(pyridin-2-ylmethyl)propanamide] | 200 to 1000
CC(c1ccc2c(c1)CCC2)N(CCOc1ccccn1)C(=O)C1(c2ccc(Cl)cc2)CCC1 (stereo not shown) [Example 50, 1-(4-chlorophenyl)-N-[1-(2,3-dihydro-1H-inden-5-yl)ethyl]-N-[2-(pyridin-2-yloxy)ethyl]cyclobutanecarboxamide] | 200 to 1000
CC(CCN(C(=O)c1cccnc1)C(C)c1ccc2c(c1)CCC2)c1ccc(F)cc1 (stereo not shown) [Example 68, N-[1-(2,3-dihydro-1H-inden-5-yl)ethyl]-N-[3-(4-fluorophenyl)butyl]pyridine-3-carboxamide] | 200 to 1000
CC(c1ccc2c(c1)CCC2)N(CCOc1ccccn1)C(=O)CCCc1ccccc1 (stereo not shown) [Example 51, N-[1-(2,3-dihydro-1H-inden-5-yl)ethyl]-4-phenyl-N-[2-(pyridin-2-yloxy)ethyl]butanamide] | 50 to 200
CC(c1ccc2c(c1)SC(C)(C)O2)N(Cc1ccccn1)C(=O)CCc1cccc(C(F)(F)F)c1 (stereo not shown) [Example 62, N-[1-(2,2-dimethyl-1,3-benzoxathiol-5-yl)ethyl]-N-(pyridin-2-ylmethyl)-3-[3-(trifluoromethyl)phenyl]propanamide] | 200 to 1000

Now from value to compound:

IC50 [nM] | SMILES
200 to 1000 | COc1ccc(CN(C(=O)CCc2ccc(F)cc2)C(C)c2ccccc2)cn1 (stereo not shown) [Example 43, 3-(4-fluorophenyl)-N-(1-phenylethyl)-N-(6-methoxypyridin-3-ylmethyl)propanamide]
50 to 200 | O=C(CCc1ccc(F)cc1)N(Cc1ccccn1)C(c1ccccc1)C1CCCC1 (stereo not shown) [Example 23, N-[cyclopentyl(phenyl)methyl]-3-(4-fluorophenyl)-N-(pyridin-2-ylmethyl)propanamide]
< 50 | O=C(C1CC1c1ccc(F)cc1)N(Cc1ccccn1)C(c1ccc(Cl)cc1)C1CC1 (stereo not shown) [Example 10, N-[(4-chlorophenyl)(cyclopropyl)methyl]-2-(4-fluorophenyl)-N-(pyridin-2-ylmethyl)cyclopropanecarboxamide]
50 to 200 | CCC(c1ccc2c(c1)CC(C)O2)N(Cc1ccccn1)C(=O)CCc1ccc(F)cc1 (stereo not shown) [Example 24, 3-(4-fluorophenyl)-N-[1-(2-methyl-2,3-dihydro-1-benzofuran-5-yl)propyl]-N-(pyridin-2-ylmethyl)propanamide]
200 to 1000 | CC(c1ccc2c(c1)CCC2)N(Cc1ccccn1)C(=O)CCc1ccc(F)cc1 (stereo not shown) [Example 67, N-[1-(2,3-dihydro-1H-inden-5-yl)ethyl]-3-(4-fluorophenyl)-N-(pyridin-2-ylmethyl)propanamide]
200 to 1000 | CCC(CC)C(c1ccccc1)N(Cc1ccccn1)C(=O)CCc1ccc(F)cc1 (stereo not shown) [Example 22, N-(2-ethyl-1-phenylbutyl)-3-(4-fluorophenyl)-N-(pyridin-2-ylmethyl)propanamide]
50 to 200 | O=C(CCc1ccc(F)cc1)N(Cc1ccccn1)C(c1ccc(Cl)cc1)C1CC1 (stereo not shown) [Example 9, N-[cyclopropyl(4-chlorophenyl)methyl]-3-(4-fluorophenyl)-N-(pyridin-2-ylmethyl)propanamide]
50 to 200 | O=C(CCc1ccc(F)cc1)N(Cc1ccccn1)C(c1ccc(F)cc1)C1CCCC1 (stereo not shown) [Example 21, N-[cyclopentyl(4-fluorophenyl)methyl]-3-(4-fluorophenyl)-N-(pyridin-2-ylmethyl)propanamide]
200 to 1000 | COCc1ccccc1C(C)N(Cc1ccccn1)C(=O)CCc1ccc(F)cc1 (stereo not shown) [Example 57, 3-(4-fluorophenyl)-N-{1-[2-(methoxymethyl)phenyl]ethyl}-N-(pyridin-2-ylmethyl)propanamide]
200 to 1000 | O=C(CS(=O)(=O)c1ccc(F)cc1)N(Cc1ccccn1)C(c1ccccc1)C1CC1 (stereo not shown) [Example 15, N-[cyclopropyl(phenyl)methyl]-2-[(4-fluorophenyl)sulfonyl]-N-(pyridin-2-ylmethyl)acetamide]
200 to 1000 | CC(c1ccccc1)N(Cc1ccccn1)C(=O)CCc1ccc(F)cc1 (stereo not shown) [Example 42, 3-(4-fluorophenyl)-N-(1-phenylethyl)-N-(pyridin-2-ylmethyl)propanamide]
< 50 | COc1ccc(C(C2CC2)N(Cc2ccccn2)C(=O)CC(C)c2ccc(F)cc2)cc1 (stereo not shown) [Example 1, N-[cyclopropyl(4-methoxyphenyl)methyl]-3-(4-fluorophenyl)-N-(pyridin-2-ylmethyl)butanamide]
